Measured values reported in US10071976B2, “Small molecule fatty acid synthase inhibitors” (Sanford Burnham Prebys Medical Discovery Institute, priority 2014, dated 2018).
Values joined by “and” are separate entries in the source; they are usually repeats but may differ in a detail not shown here. Equal values may be shown once.

Tests used:
[1] = tested on: chymotrypsin; test: Reaction Biology protease panel: chymotrypsin; assay type: biochemical; conditions: read-out: chymotrypsin inhibition (IC50)
Description: (§1) To further evaluate selectivity and identify any off-target effects, compound 37 was tested against a commercial panel of 34 binding assays (enzymes, receptors & ion channels) through Eurofins Panlabs. […] Compound 37 was also tested in a commercial panel of 17 diverse proteases (Reaction Biology).

[2] = tested on: sodium channel; test: Eurofins Panlabs binding panel: sodium channel; conditions: 10 μM
Description: as §1

[3] = tested on: prostate cancer PC-3 cells; test: De novo palmitate synthesis from 13C-glucose in whole cells (GC-MS); assay type: cell-based; conditions: for de novo palmitate synthesis/DMSO (%): 20 μM, [U-13C]-glucose 24 h, pH 7.8, relative to DMSO control
Description: The ability of compounds to block biosynthesis of palmitate in whole cells (prostate cancer PC-3 cells) was measured by feeding cells isotopically labeled glucose (^13C-glucose) and measuring the incorporation of ^13C into palmitate by GC-MS.
Prostate cancer PC-3 cell were incubated with 20 μM of FASN inhibitors and labeled with [U-13C]-glucose for 24 h, pH 7.8. The incorporation of ^13C into palmitate from labeled glucose was determined by extracting fatty acids and resolving them by GC-MS. The mass distributions for fatty acid methyl esters for C16:0 (palmitate) were corrected for isotope natural abundance, and the corrected isotope patterns were used to calculate the labeling of acetyl-CoA in palmitate based on a binomial probability distribution of the incorporation of labeled acetyl units into the fatty acid chain.

[4] = molecular target: T1, CYP450 2C19 (Homo sapiens, UniProt P33261); test: Eurofins Panlabs binding panel: CYP450 2C19; conditions: 10 μM
T1 construct: purchased Eurofins Panlabs
T1 sequence (P33261 whole entry): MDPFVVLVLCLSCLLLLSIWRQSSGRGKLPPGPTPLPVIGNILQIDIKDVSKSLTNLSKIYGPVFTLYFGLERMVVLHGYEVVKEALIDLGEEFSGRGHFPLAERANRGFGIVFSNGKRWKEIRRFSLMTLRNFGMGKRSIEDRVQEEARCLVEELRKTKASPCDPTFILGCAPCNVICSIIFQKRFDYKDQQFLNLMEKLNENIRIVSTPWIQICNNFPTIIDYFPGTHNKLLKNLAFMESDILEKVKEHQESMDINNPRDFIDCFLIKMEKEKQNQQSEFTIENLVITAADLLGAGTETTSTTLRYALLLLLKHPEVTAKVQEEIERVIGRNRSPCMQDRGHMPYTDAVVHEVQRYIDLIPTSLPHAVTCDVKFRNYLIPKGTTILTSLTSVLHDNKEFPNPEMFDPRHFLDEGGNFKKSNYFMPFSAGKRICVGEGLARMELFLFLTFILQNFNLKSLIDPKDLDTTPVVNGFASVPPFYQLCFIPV
Description: as §1

[5] = molecular target: T2, FASN-TE (Homo sapiens, UniProt P49327); test: Eadie-Hofstee enzymology analysis; assay type: biochemical
T2 sequence (P49327 2207-2511 limits assumed): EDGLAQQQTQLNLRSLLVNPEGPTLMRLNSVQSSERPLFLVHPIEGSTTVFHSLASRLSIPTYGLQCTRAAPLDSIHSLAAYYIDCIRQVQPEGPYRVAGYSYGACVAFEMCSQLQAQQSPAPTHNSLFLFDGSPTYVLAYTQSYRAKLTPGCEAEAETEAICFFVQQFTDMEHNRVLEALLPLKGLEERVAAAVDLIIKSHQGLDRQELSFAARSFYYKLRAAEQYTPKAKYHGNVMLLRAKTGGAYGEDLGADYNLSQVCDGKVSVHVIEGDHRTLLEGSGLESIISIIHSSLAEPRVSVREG
Description: Furthermore, using a classical enzymology analysis (Eadie-Hofstee) compound 37 was determined to have a non-competitive mode of inhibition (see FIG. 2).

[6] = Pharmacokinetic study, IP dosing; assay type: in vivo; conditions: mice, 10 mg/kg IP
Description: A pharmacokinetic (PK) study of Compound 37 dosed systemically (IP) in mice was conducted. At 10 mg/kg (IP) compound 37 attained plasma levels post dosing of >3 μM up to 30 min., >2 μM up to 1 h, and >1 μM up to 2 h.

[7] = tested on: enzymes, receptors & ion channels; test: Commercial panel of 34 binding assays (Eurofins Panlabs); conditions: 10 μM
Description: as §1

[8] = molecular target: T3, ACOT4 (Homo sapiens, UniProt Q8N9L9); test: FP-PEG-TAMRA labeling of recombinant ACOT4; assay type: binding; conditions: recombinant enzyme, 20 μM final, pH 7.8
T3 sequence (Q8N9L9 1-421): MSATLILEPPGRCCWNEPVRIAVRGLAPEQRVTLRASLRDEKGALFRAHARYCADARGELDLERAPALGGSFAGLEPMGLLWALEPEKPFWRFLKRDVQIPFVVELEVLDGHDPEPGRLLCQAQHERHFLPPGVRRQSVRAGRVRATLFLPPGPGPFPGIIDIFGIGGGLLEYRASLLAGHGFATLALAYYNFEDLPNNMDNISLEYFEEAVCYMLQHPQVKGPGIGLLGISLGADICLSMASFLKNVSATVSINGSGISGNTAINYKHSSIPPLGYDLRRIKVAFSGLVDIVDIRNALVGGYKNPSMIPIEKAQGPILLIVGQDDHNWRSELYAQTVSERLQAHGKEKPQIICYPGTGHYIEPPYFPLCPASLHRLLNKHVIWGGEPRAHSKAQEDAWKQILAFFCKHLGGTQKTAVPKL
Description: (§2) Additionally, studies were performed to test the selectivity of Compounds 1, 16, 22, and 37 for the FASN thioesterase over its most closely related human homolog, the enzyme called ACOT4 (see FIG. 3). Both proteins were mixed and pretreated with the compound (20 μM final, pH 7.8) before addition of the fluorescent activity probe FP-PEG-TAMRA. Respective fluorescence of the bands was detected on a Hitachi flatbed scanner and a greyscale version used for quantitative analysis using ImageJ. Recombinant forms of each enzyme were incubated with compound 16, compound 1, compound 37, and compound 22. FP-TAMRA was included in this mixture to label the active site of the FASN thioesterase and ACOT4. […] These findings further attest to the high degree of selectivity of compounds 1, 16, 37 and 22 for the FASN thioesterase.

[9] = molecular target: T2, FASN-TE; test: In-vitro biochemical assay measuring FAS-TE inhibition (OMFH substrate, fluorescence)
Description: Min wells: Substrate+No enzyme+DMSO, Max wells: Substrate+Enzyme+DMSO, Sample wells: Substrate+Enzyme+Test compounds, Reference compound: Orlistat (make a fresh 10 mM stock in DMSO each time). 384-well black, low-volume plate (Greiner #784076)
Assay Protocol: • 1) ECHO transfer 160 nL of 125× Compound (or DMSO for control wells) per well. • 2) For Max and Sample wells: Add 10 μL of Enzyme (2×; 1.8 μM) prepared in RXN Buffer. For Min wells: Add 10 μL of RXN Buffer (No Enzyme). • 3) For all wells: Add 10 μL of Substrate (2×; 20 μM) prepared in diH2O+10% DMSO. • 4) Centrifuge plate for 1 minute at 1,000 rpm. • 5) Measure fluorescence every 5 minutes for 1-1.5 hours using the BMG POLARstar (ex 485 nm/em 520 nm; Gain=1015; 25 flashes). • 6) All volumes can be adjusted but the final DMSO concentration should be kept at about 6%.
Data Analysis: • 1) Calculate slopes and express as % Activity (Min wells=0%; Max wells=100%). • 2) Then, using Prism, calculate the IC50 values.

[10] = tested on: 17 diverse proteases; test: Commercial panel of 17 diverse proteases (Reaction Biology); assay type: biochemical; conditions: up to 100 μM
Description: as §1

[11] = molecular target: T4, FASN thioesterase (Homo sapiens, UniProt P49327); test: FP-PEG-TAMRA labeling of recombinant FASN thioesterase; assay type: binding; conditions: recombinant enzyme, 20 μM final, pH 7.8
T4 construct: label the active site of the FASN thioesterase and ACOT4
T4 sequence (P49327 2207-2511 limits assumed): as the sequence (P49327 2207-2511 limits assumed) above
Description: as §2

[12] = molecular target: T5, FASN (Homo sapiens, UniProt P49327); test: Competition with activity-based probe FP-PEG-TAMRA in PC-3 whole cell lysate: FASN; assay type: binding; conditions: PC-3 lysate, 20 μM final, pH 7.8
T5 construct: lysates of the prostate tumor line (PC3), which expresses FASN; endogenous in cells; host or cells: PC-3 prostate tumour cells (whole cell lysate)
T5 sequence (P49327 whole entry): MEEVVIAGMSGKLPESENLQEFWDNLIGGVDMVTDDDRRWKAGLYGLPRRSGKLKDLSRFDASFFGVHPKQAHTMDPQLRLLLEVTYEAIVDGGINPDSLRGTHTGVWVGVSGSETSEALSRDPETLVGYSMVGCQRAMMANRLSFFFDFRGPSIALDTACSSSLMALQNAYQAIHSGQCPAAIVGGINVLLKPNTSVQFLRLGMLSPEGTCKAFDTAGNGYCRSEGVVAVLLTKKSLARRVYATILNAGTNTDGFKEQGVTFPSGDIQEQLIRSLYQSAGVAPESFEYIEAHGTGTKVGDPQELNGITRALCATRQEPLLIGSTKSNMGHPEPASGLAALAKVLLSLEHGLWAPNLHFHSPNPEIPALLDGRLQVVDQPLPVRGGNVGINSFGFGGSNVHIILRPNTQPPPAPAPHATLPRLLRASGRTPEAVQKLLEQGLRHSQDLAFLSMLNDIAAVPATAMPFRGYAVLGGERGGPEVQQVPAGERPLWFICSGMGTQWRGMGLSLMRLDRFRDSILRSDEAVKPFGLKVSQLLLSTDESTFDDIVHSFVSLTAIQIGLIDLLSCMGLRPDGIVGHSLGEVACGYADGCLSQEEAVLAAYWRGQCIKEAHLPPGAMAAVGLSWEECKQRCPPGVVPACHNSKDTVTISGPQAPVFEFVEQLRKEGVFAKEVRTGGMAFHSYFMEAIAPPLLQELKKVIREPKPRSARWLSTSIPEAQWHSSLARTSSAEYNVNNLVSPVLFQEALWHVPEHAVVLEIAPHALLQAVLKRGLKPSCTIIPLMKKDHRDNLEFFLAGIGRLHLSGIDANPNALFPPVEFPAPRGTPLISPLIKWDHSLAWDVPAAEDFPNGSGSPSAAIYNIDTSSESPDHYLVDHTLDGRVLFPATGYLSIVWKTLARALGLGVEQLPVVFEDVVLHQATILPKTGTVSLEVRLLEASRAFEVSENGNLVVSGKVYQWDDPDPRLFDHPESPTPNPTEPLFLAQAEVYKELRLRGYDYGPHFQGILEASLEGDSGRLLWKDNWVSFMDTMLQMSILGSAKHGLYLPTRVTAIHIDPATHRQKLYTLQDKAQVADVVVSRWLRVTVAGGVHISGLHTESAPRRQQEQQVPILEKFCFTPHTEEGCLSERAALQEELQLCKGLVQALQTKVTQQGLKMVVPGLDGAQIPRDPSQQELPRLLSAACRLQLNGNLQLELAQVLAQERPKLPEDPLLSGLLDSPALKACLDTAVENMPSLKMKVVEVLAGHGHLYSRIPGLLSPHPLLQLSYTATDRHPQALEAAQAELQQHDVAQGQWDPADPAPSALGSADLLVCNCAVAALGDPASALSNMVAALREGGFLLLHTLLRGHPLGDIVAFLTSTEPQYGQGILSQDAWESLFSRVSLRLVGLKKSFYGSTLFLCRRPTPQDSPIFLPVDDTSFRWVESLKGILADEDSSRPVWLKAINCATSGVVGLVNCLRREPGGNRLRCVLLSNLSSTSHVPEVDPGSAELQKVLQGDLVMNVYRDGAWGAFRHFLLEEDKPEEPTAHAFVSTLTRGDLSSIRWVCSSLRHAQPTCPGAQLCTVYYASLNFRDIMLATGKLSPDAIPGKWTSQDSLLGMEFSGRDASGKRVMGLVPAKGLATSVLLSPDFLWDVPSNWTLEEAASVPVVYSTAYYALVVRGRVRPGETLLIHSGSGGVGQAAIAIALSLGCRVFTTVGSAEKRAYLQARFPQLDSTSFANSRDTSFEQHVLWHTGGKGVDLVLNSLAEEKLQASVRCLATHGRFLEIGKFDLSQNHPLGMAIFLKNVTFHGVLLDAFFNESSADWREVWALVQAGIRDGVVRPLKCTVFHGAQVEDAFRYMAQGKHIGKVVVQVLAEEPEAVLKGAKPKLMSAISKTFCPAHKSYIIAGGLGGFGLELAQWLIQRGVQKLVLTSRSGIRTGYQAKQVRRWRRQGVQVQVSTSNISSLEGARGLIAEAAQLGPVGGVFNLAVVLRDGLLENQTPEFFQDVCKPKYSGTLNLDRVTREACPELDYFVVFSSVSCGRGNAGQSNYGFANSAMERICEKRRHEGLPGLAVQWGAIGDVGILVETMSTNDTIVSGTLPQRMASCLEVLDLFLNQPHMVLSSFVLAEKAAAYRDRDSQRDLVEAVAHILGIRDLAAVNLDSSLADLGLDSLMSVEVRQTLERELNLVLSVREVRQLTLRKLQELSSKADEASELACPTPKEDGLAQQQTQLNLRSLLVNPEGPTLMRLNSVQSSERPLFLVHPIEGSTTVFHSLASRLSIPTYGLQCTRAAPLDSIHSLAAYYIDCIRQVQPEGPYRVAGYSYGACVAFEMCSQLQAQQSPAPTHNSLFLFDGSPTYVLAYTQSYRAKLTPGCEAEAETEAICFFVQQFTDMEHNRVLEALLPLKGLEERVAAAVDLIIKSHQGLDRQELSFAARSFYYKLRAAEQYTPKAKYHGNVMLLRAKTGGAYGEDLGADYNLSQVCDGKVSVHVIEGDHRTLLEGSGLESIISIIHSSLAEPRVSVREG
Description: Studies were conducted to determine the selectivity of compound 16 for FASN over other human thioesterases. The ability of the compounds to bind the FASN holoenzyme was tested by assessing their ability to compete for the binding of an activity-based probe that covalently attaches to the active site of the FASN thioesterase. Thioesterases are members of the serine hydrolase family, which also includes a number of other types of enzymes including proteases, dipeptidyl peptidases, epoxide hydrolases, etc. To help assess the selectivity of compound 16, an activity-based probe polyethyleneglycol-6-carboxytetramethyl-rhodamine (FP-PEG-TAMRA) that binds covalently to the catalytic serine of all serine hydrolases was used. These studies were done by assessing the ability of compound 16 to compete for the binding of the activity-based probe in whole cell lysates. Several analogs of compound 16 were tested in this assay using lysates of the prostate tumor line (PC3), which expresses FASN, along with numerous other serine hydrolases. The PC-3 lysate was incubated with 8 different FASN inhibitors, including compounds 1, 16 and 97. Then the activity-based probe (FP-PEG-TAMRA) was added to each sample to label the serine hydrolases in the lysate.

Structure (SMILES): CCC(C)C(=O)Nc1nc(-c2ccc(S(=O)(=O)N(CC)CC)cc2)cs1 (stereo not shown) [Compound 37]
- IC50 [1]: 1700 nM
- binding interaction [2]: 74%
- inhibition of palmitate synthesis in whole cells [3]: dose-dependently inhibits palmitate synthesis
- binding interaction [4]: 50%
- mode of inhibition [5]: non-competitive
- plasma levels post dosing ([6]; up to 30 min): > 3000 nM
- plasma levels post dosing ([6]; up to 1 h): > 2000 nM
- plasma levels post dosing ([6]; up to 2 h): > 1000 nM
- binding interactions >50% in panel of 34 binding assays [7]: Only two binding interactions>50%
- activity labeling of ACOT4 [8]: without effect
- IC50 [9]: 300 nM
- interactions in panel of 17 proteases [10]: Only one interaction
- binding of FP-TAMRA to the active site of the FASN thioesterase [11]: blocked the binding of FP-TAMRA

Structure (SMILES): CCCCC(=O)Nc1nc(-c2ccc(S(=O)(=O)N3CCOCC3)cc2)cs1 [Compound 1]
- inhibition of palmitate synthesis in whole cells [3]: inhibitory activity
- de novo palmitate synthesis/DMSO (%) [3]: 40%
- activity labeling of ACOT4 [8]: without effect
- inhibition of FASN (blocking of FP-TAMRA binding) [12]: showed inhibition of FASN
- IC50 [9]: 199 nM and 204 nM and 555 nM
- binding of FP-TAMRA to the active site of the FASN thioesterase [11]: blocked the binding of FP-TAMRA

Structure (SMILES): CCCCC(=O)Nc1nc(-c2ccc(S(=O)(=O)N3CCC(C)CC3)cc2)cs1 [Compound 22]
- activity labeling of ACOT4 [8]: without effect
- IC50 [9]: 501 nM
- binding of FP-TAMRA to the active site of the FASN thioesterase [11]: blocked the binding of FP-TAMRA

Structure (SMILES): Cc1ccc(NC(=O)Cc2nc(-c3ccc(S(=O)(=O)N4CCOCC4)cc3)cs2)cc1 [Compound 97]
- inhibition of palmitate synthesis in whole cells [3]: did not inhibit palmitate synthesis
- de novo palmitate synthesis/DMSO (%) [3]: 95%
- inhibition of FASN (blocking of FP-TAMRA binding) [12]: did not
- IC50 [9]: ≥ 80000 nM
- activity in the enzyme-based assay ([9]; negative control): no activity

Structure (SMILES): O=C(Nc1nc(-c2ccc(S(=O)(=O)N3CCOCC3)cc2)cs1)C1CCCCC1 [Compound 20]
- IC50 [9]: > 80000 nM

Structure (SMILES): CC(C)C(=O)Nc1nc(-c2ccc(S(=O)(=O)N3CCCC3)cc2)cs1 [Compound 27]
- IC50 [9]: 277 nM

Structure (SMILES): CC(=O)Nc1nc(-c2ccc(S(=O)(=O)N3CCOCC3)cc2)cs1 [Compound 9]
- IC50 [9]: 13400 nM

Structure (SMILES): CCCCCCC(=O)Nc1nc(-c2ccc(S(=O)(=O)N3CCCC3)cc2)cs1 [Compound 51]
- IC50 [9]: 850 nM

Structure (SMILES): CCC(=O)Nc1nc(-c2ccc(S(=O)(=O)N3CCOCC3)cc2)cs1 [Compound 14]
- IC50 [9]: 4500 nM

Structure (SMILES): CCN(CC)S(=O)(=O)c1ccc(-c2csc(C(C)C)n2)cc1 [Compound 101]
- IC50 [9]: 11400 nM

Structure (SMILES): CCC(C)C(=O)Nc1nc(-c2ccc(S(=O)(=O)N3CCCCC3C)cc2)cs1 (stereo not shown) [Compound 44]
- IC50 [9]: 290 nM

Structure (SMILES): O=S(=O)(c1ccc(-c2csc(Cc3ccccc3)n2)cc1)N1CCOCC1 [Compound 96]
- IC50 [9]: 660 nM

Structure (SMILES): O=C(Nc1nc(-c2ccc(S(=O)(=O)N3CCCC3)cc2)cs1)C1CCC1 [Compound 29]
- IC50 [9]: 400 nM

Structure (SMILES): CCCCCC(=O)Nc1nc(-c2ccc(S(=O)(=O)N3CCC(C)CC3)cc2)cs1 [Compound 57]
- IC50 [9]: 750 nM
